Measurements from ChEMBL document CHEMBL1148467, “Benzoxazinones as PPARgamma agonists. 2. SAR of the amide substituent and in vivo results in a type 2 diabetes model” (J Med Chem, 2004).

Legend:
[1] = target: T1, Peroxisome proliferator-activated receptor gamma (Homo sapiens, UniProt P37231)
T1 sequence (P37231 whole entry): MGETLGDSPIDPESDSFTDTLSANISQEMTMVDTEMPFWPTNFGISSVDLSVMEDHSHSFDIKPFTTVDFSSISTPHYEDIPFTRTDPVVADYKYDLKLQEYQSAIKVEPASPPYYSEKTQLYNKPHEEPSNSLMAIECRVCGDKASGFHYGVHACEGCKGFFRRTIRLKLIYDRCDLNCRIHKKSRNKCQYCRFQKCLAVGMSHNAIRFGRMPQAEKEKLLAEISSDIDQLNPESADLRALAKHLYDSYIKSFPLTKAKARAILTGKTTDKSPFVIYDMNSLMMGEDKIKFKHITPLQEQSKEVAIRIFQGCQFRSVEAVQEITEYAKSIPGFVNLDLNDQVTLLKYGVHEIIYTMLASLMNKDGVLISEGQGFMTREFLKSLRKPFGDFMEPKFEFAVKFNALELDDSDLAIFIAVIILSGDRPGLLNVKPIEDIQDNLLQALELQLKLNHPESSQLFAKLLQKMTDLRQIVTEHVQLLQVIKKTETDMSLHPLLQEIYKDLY
Description: Agonistic activity against PPAR (peroxisome proliferator activated receptor gamma) in Suarus chinesis

[2] = Half-life in rat at 30 mg/kg dose administered orally; conditions: in vivo, po
[3] = Area under curve was evaluated in rat at 3 mg/kg dose administered intravenously; assay type: ADME, organism-based; parameters: dose 3 mg/kg, route intravenous; conditions: in vivo, iv
[4] = In vitro metabolic stability at 5 uM was determined by incubating with human liver microsomes at 37 degree C; assay type: ADME, Microsome
[5] = Oral bioavailability in rat (dose 30 mg/kg); assay type: ADME, organism-based; conditions: in vivo
[6] = Area under curve was evaluated in rat at 30 mg/kg dose administered orally; conditions: in vivo, po

O=C(O)Cc1ccccc1OCCC1Oc2ccccc2N(CCCCCCF)C1=O (centres undefined)
EC50 [1]: 117 nM
half-life [2]: 16 h
AUC [3]: 84 µM·h
half-life at 5 µM [4]: 1.27 h
bioavailability [5]: 100%

CN1C(=O)C(CCOc2ccccc2CC(=O)O)Oc2ccccc21 (centres undefined)
EC50 [1]: > 5000 nM

CNC(=O)CCCN1C(=O)C(CCOc2ccccc2CC(=O)O)Oc2ccccc21 (centres undefined)
EC50 [1]: > 5000 nM

COCCCCN1C(=O)[C@@H](CCOc2ccccc2CC(=O)O)Oc2ccccc21
EC50 [1]: 274 nM
half-life [2]: 6.7 h
AUC [3]: 88 µM·h
half-life at 5 µM [4]: > 8.33 h
bioavailability [5]: 41%

CC(C)N1C(=O)C(CCOc2ccccc2CC(=O)O)Oc2ccccc21 (centres undefined)
EC50 [1]: > 5000 nM

CC(O)CCCCN1C(=O)C(CCOc2ccccc2CC(=O)O)Oc2ccccc21 (centres undefined)
EC50 [1]: 1000 nM

CCCCCCN1C(=O)[C@H](CCOc2ccccc2CC(=O)O)Oc2ccccc21
EC50 [1]: 1200 nM

CCCN1C(=O)C(CCOc2ccccc2CC(=O)O)Oc2ccccc21 (centres undefined)
EC50 [1]: ~5000 nM

CC(C)CN1C(=O)C(CCOc2ccccc2CC(=O)O)Oc2ccccc21 (centres undefined)
EC50 [1]: ~5000 nM

O=C(O)Cc1ccccc1OCCC1Oc2ccccc2N(CCCCCCCO)C1=O (centres undefined)
EC50 [1]: 149 nM
half-life [2]: 7 h
AUC [3]: 2.3 µM·h
half-life at 5 µM [4]: 1.27 h
bioavailability [5]: 13%

CC(C)(O)CCCCN1C(=O)C(CCOc2ccccc2CC(=O)O)Oc2ccccc21 (centres undefined)
EC50 [1]: 644 nM

CC(F)(F)CCCCN1C(=O)[C@H](CCOc2ccccc2CC(=O)O)Oc2ccccc21
EC50 [1]: 1000 nM

CCCNC(=O)CN1C(=O)C(CCOc2ccccc2CC(=O)O)Oc2ccccc21 (centres undefined)
EC50 [1]: > 5000 nM

CC(F)(F)CCCCCN1C(=O)C(CCOc2ccccc2CC(=O)O)Oc2ccccc21 (centres undefined)
EC50 [1]: 534 nM

CCCCN1C(=O)C(CCOc2ccccc2CC(=O)O)Oc2ccccc21 (centres undefined)
EC50 [1]: ~5000 nM

CCCCCCCN1C(=O)C(CCOc2ccccc2CC(=O)O)Oc2ccccc21 (centres undefined)
EC50 [1]: 234 nM

CCCCCCN1C(=O)C(CCOc2ccccc2CC(=O)O)Oc2ccccc21 (centres undefined)
AUC [6]: 406 µM·h
EC50 [1]: 100 nM
half-life [2]: 14 h
half-life at 5 µM [4]: 0.883 h
bioavailability [5]: 115%

O=C(O)Cc1ccccc1OCCC1Oc2ccccc2N(CC(=O)O)C1=O (centres undefined)
EC50 [1]: > 5000 nM

CCCCCCN1C(=O)[C@@H](CCOc2ccccc2CC(=O)O)Oc2ccccc21
EC50 [1]: 100 nM
half-life [2]: 14.5 h
AUC [3]: 327 µM·h
half-life at 5 µM [4]: 1.22 h
bioavailability [5]: 95%

CC(C)(CCCCN1C(=O)C(CCOc2ccccc2CC(=O)O)Oc2ccccc21)C(=O)O (centres undefined)
EC50 [1]: 1000 nM

CCOCCCN1C(=O)C(CCOc2ccccc2CC(=O)O)Oc2ccccc21 (centres undefined)
EC50 [1]: ~5000 nM

C/C(CCCCN1C(=O)C(CCOc2ccccc2CC(=O)O)Oc2ccccc21)=N\O (centres undefined)
EC50 [1]: 10 nM
half-life [2]: 4.2 h
AUC [3]: 19.9 µM·h
half-life at 5 µM [4]: 2.47 h
bioavailability [5]: 16%

C=CCCCCN1C(=O)C(CCOc2ccccc2CC(=O)O)Oc2ccccc21 (centres undefined)
EC50 [1]: 208 nM

CCCCCN1C(=O)C(CCOc2ccccc2CC(=O)O)Oc2ccccc21 (centres undefined)
EC50 [1]: 243 nM

O=C(O)CCCCN1C(=O)C(CCOc2ccccc2CC(=O)O)Oc2ccccc21 (centres undefined)
EC50 [1]: > 5000 nM

CC(=O)CCCCCN1C(=O)C(CCOc2ccccc2CC(=O)O)Oc2ccccc21 (centres undefined)
EC50 [1]: 264 nM

NC(=O)CCCCN1C(=O)C(CCOc2ccccc2CC(=O)O)Oc2ccccc21 (centres undefined)
EC50 [1]: > 5000 nM

O=C(O)CCCCCN1C(=O)C(CCOc2ccccc2CC(=O)O)Oc2ccccc21 (centres undefined)
EC50 [1]: > 5000 nM

CCCCCCCCN1C(=O)C(CCOc2ccccc2CC(=O)O)Oc2ccccc21 (centres undefined)
EC50 [1]: 300 nM

CC(F)(F)CCCCN1C(=O)C(CCOc2ccccc2CC(=O)O)Oc2ccccc21 (centres undefined)
EC50 [1]: 179 nM

O=C(O)Cc1ccccc1OCCC1Oc2ccccc2N(CCC2CCCCC2)C1=O (centres undefined)
EC50 [1]: 300 nM

NC(=O)CCCCCN1C(=O)C(CCOc2ccccc2CC(=O)O)Oc2ccccc21 (centres undefined)
EC50 [1]: ~5000 nM

O=C(O)Cc1ccccc1OCC[C@H]1Oc2ccccc2N(CCCCCCF)C1=O
EC50 [1]: 152 nM
half-life [2]: 7.9 h
AUC [3]: 93 µM·h
half-life at 5 µM [4]: 1.85 h
bioavailability [5]: 39%

CS(=O)(=O)NCCCCCCN1C(=O)C(CCOc2ccccc2CC(=O)O)Oc2ccccc21 (centres undefined)
EC50 [1]: > 5000 nM

O=C(O)Cc1ccccc1OCCC1Oc2ccccc2N(CCCCCO)C1=O (centres undefined)
EC50 [1]: 1000 nM

O=C(O)Cc1ccccc1OCCC1Oc2ccccc2N(CCCC2CCCC2)C1=O (centres undefined)
EC50 [1]: 2700 nM

CC(=O)CCCCN1C(=O)C(CCOc2ccccc2CC(=O)O)Oc2ccccc21 (centres undefined)
EC50 [1]: 260 nM
half-life [2]: 9.8 h
AUC [3]: 5.8 µM·h
half-life at 5 µM [4]: 0.85 h
bioavailability [5]: 27%

O=C(O)Cc1ccccc1OCC[C@@H]1Oc2ccccc2N(CCCCCCF)C1=O
EC50 [1]: 570 nM

CC(C)(C#N)CCCCN1C(=O)C(CCOc2ccccc2CC(=O)O)Oc2ccccc21 (centres undefined)
EC50 [1]: 359 nM

CC(C)(C)CCCCN1C(=O)C(CCOc2ccccc2CC(=O)O)Oc2ccccc21 (centres undefined)
EC50 [1]: 1000 nM

O=C(O)Cc1ccccc1OCCC1Oc2ccccc2N(CCC2CCCC2)C1=O (centres undefined)
EC50 [1]: ~5000 nM

CCCSCCN1C(=O)C(CCOc2ccccc2CC(=O)O)Oc2ccccc21 (centres undefined)
EC50 [1]: 380 nM

O=C(O)Cc1ccccc1OCCC1Oc2ccccc2N(CCO)C1=O (centres undefined)
EC50 [1]: > 5000 nM

CC(=O)NCCCCCCN1C(=O)C(CCOc2ccccc2CC(=O)O)Oc2ccccc21 (centres undefined)
EC50 [1]: > 5000 nM

CO/N=C(\C)CCCCN1C(=O)C(CCOc2ccccc2CC(=O)O)Oc2ccccc21 (centres undefined)
EC50 [1]: ~5000 nM

CCCCCCCCCCN1C(=O)C(CCOc2ccccc2CC(=O)O)Oc2ccccc21 (centres undefined)
EC50 [1]: 1000 nM

CC(F)(F)CCCCN1C(=O)[C@@H](CCOc2ccccc2CC(=O)O)Oc2ccccc21
EC50 [1]: 295 nM

COCCCCN1C(=O)C(CCOc2ccccc2CC(=O)O)Oc2ccccc21 (centres undefined)
EC50 [1]: 274 nM

CC(C)CCCCN1C(=O)C(CCOc2ccccc2CC(=O)O)Oc2ccccc21 (centres undefined)
EC50 [1]: 79 nM

O=C(O)Cc1ccccc1OCCC1Oc2ccccc2N(CCCCCCCF)C1=O (centres undefined)
EC50 [1]: 718 nM

CCN1C(=O)C(CCOc2ccccc2CC(=O)O)Oc2ccccc21 (centres undefined)
EC50 [1]: > 5000 nM

CCCCCCCCCN1C(=O)C(CCOc2ccccc2CC(=O)O)Oc2ccccc21 (centres undefined)
EC50 [1]: ~5000 nM

O=C(O)Cc1ccccc1OCCC1Oc2ccccc2N(CCCCCCO)C1=O (centres undefined)
EC50 [1]: 200 nM
half-life [2]: 0.6 h
AUC [3]: 2.5 µM·h
half-life at 5 µM [4]: 0.95 h
bioavailability [5]: 4%
